Test [1] concerns the target T1, D(2) dopamine receptor (Homo sapiens, UniProt P14416).
Description: Binding affinity to dopamine D2
The target in test [2] is T2, D(3) dopamine receptor (Homo sapiens, UniProt P35462). Put plainly: biochemical.
Description: (§1) Displacement of [3H]spiperone from human dopamine D3 expressed in CHO cell membrane
In a further test the target is T3, D(4) dopamine receptor (Homo sapiens, UniProt P21917).
T3 sequence (P21917 whole entry): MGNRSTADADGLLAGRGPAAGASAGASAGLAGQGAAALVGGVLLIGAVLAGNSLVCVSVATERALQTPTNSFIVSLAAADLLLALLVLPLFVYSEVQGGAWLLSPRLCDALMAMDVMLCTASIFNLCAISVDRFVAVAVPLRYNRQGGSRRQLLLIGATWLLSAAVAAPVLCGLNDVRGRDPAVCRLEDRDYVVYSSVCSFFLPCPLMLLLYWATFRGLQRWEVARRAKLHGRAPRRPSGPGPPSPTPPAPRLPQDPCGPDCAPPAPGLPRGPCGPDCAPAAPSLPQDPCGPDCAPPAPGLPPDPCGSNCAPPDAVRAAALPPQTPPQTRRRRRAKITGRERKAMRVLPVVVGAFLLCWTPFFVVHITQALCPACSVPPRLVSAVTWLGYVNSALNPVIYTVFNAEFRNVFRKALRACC
As to the kind of experiment: biochemical.

The target of test [3] is T2, D(3) dopamine receptor.
Description: as §1
Test [4] addresses T4, 5-hydroxytryptamine receptor 1A (Homo sapiens, UniProt P08908).
T4 sequence (P08908 whole entry): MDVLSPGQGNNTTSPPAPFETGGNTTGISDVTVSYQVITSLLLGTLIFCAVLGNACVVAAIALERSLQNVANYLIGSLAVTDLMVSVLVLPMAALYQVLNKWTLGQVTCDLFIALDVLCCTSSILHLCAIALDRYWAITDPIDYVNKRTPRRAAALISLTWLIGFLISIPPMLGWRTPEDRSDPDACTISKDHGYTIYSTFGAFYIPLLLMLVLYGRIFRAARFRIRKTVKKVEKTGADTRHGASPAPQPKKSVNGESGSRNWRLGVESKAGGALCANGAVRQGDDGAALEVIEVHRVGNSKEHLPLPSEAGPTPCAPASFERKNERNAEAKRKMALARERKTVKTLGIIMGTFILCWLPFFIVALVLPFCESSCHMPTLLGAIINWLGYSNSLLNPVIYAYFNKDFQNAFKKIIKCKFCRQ
As to the kind of experiment: Displacement of [3H]8-OH-DPAT from human 5HT1A receptor expressed in CHO cells. In kind it is cell-based.

The target of test [5] is Serotonin 2 (5-HT2) receptor (Homo sapiens, UniProt P41595+P28223+P28335). As to the kind of experiment: Displacement of [3H]ketanserin from human 5HT2 receptor expressed in CHO cells. It is filed as cell-based. For orientation: Displacement assays read how much labelled ligand stays bound in the presence of the test substance.
The target in test [6] is T1, D(2) dopamine receptor. As to the kind of experiment: Displacement of [3H]spiperone from human dopamine D2(short) expressed in CHO cell membrane.
For test [7], the target named is T1, D(2) dopamine receptor. Put plainly: Displacement of [3H]spiperone from human dopamine D2(long) expressed in CHO cell membrane.
The target in another test is D(1A) dopamine receptor (Sus scrofa, UniProt P50130). As to the kind of experiment: Displacement of [3H][…] from porcine dopamine D1 in porcine striatal membrane. It is filed as cell membranes, Striatum.

Structures are written as SMILES.

T1 sequence (P14416 whole entry): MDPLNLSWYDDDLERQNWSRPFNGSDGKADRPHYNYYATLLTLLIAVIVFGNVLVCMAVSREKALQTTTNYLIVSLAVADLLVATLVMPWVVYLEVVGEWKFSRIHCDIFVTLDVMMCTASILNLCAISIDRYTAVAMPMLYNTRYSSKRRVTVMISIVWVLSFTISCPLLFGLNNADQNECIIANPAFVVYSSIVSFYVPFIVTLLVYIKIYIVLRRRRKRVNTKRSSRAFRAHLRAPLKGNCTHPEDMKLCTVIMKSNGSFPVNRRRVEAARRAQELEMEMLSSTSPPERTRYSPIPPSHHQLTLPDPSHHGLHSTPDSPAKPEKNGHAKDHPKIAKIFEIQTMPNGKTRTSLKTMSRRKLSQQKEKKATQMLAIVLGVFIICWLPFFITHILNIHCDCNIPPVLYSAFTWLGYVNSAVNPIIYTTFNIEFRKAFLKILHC
T2 sequence (P35462 whole entry): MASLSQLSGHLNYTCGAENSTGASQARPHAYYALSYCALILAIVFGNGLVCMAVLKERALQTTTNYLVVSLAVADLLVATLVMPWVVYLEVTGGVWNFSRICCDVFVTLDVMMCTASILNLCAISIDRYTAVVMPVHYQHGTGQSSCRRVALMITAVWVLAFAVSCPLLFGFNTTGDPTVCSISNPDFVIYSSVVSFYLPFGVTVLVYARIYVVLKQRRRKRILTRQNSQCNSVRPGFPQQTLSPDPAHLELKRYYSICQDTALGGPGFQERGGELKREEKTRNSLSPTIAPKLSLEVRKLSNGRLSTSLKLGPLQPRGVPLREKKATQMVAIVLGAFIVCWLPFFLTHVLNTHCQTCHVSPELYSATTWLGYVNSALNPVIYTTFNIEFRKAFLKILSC
Chain of D(1A) dopamine receptor (P50130 whole entry): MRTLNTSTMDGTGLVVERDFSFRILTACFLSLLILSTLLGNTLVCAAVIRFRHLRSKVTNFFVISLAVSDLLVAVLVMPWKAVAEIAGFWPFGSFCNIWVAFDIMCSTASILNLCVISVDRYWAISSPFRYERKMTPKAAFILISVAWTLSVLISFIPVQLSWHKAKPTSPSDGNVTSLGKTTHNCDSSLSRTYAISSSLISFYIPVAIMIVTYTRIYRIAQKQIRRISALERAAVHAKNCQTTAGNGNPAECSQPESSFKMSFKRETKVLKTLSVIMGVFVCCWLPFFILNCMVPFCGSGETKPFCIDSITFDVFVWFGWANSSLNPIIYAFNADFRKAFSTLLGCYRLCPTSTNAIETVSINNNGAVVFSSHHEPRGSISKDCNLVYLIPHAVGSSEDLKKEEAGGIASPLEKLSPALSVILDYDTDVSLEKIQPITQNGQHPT
Description for D(4) dopamine receptor: Displacement of [3H]spiperone from human dopamine D4.4 expressed in CHO cell membrane

As to `C#Cc1ccc2cc(C(=O)NCCCCN3CCN(c4ccccc4OC)CC3)sc2c1`, the results for the inhibition constant Ki at D(2) dopamine receptor [1], on D(3) dopamine receptor [2] and at D(4) dopamine receptor were 200 nM, 0.38 nM and 151 nM, respectively.

In the case of `O=C(NCCCCN1CCN(c2cccc(Cl)c2Cl)CC1)c1cc2cc(Br)ccc2o1`, the inhibition constant (Ki) (usually a dissociation constant, usually derived from enzyme kinetics or from competition with a known ligand) was 10000 nM at D(2) dopamine receptor [1], 3.47 nM at D(3) dopamine receptor [2] and 3090 nM at D(4) dopamine receptor.

Take `Clc1ccc(N2CCN(Cc3cnn4c(I)cccc34)CC2)cc1`: the Ki on D(2) dopamine receptor [1] was 7590 nM; on D(3) dopamine receptor [2], 2690 nM.

Consider `OCc1ccc2c(CN3CCN(c4ccc(Cl)cc4)CC3)cnn2c1`, for which the Ki on D(2) dopamine receptor [1] is 27500 nM; at D(4) dopamine receptor, 19.5 nM.

Regarding `COc1ccccc1N1CCN(CCCCNC(=O)c2cc3ccc(C#N)cc3[nH]2)CC1`, the Ki at D(3) dopamine receptor [3] is 0.251 nM; at D(2) dopamine receptor [1] it was 158 nM; at D(4) dopamine receptor it was 39.8 nM.

On to `COc1ccccc1N1CCN(CCCCNC(=O)c2nnn(Cc3ccccc3)c2C)CC1`, for which the Ki on D(2) dopamine receptor [1] is 229 nM; on D(3) dopamine receptor [2], 67.6 nM; at D(4) dopamine receptor, 977 nM.

For the compound `Cc1c(C(=O)NCCCCCN2CCN(c3cccc(Cl)c3Cl)CC2)nnn1Cc1ccccc1`, the Ki at D(2) dopamine receptor [1] is 10 nM; at D(3) dopamine receptor [2], 8.51 nM; at D(4) dopamine receptor, 251 nM.

Take `COc1ccccc1N1CCN(CCCCCNC(=O)c2nnn(Cc3ccccc3Br)c2C)CC1`: the inhibitory constant (Ki) is 4.9 nM on D(2) dopamine receptor [1], 15.1 nM on D(3) dopamine receptor [2] and 41.7 nM at D(4) dopamine receptor.

For `COc1ccccc1N1CCN(CCCCNC(=O)c2ccc(-c3ccc([18F])nc3)cc2)CC1`, the inhibition constant (Ki) in test [4] worked out at 21 nM; on D(3) dopamine receptor [2] it was 0.45 nM; in test [5] it was 760 nM; on D(2) dopamine receptor [6] it was 12 nM; at D(4) dopamine receptor, 34 nM; at D(2) dopamine receptor [7], 15 nM. Further, the inhibition constant Ki at D(1A) dopamine receptor turned out to be 1300 nM.

As for `O=C(NCCCCN1CCN(c2ccccc2Cl)CC1)c1ccc(Cl)cc1`, the inhibition constant (Ki) is 468 nM on D(2) dopamine receptor [1], 1.7 nM at D(3) dopamine receptor [2] and 282 nM on D(4) dopamine receptor.

For `CCCc1c(C(=O)NCCCCN2CCN(c3ccccc3OC)CC2)nnn1Cc1ccccc1Br`, the Ki at D(2) dopamine receptor [1] is 21.9 nM; at D(3) dopamine receptor [2] it was 3.47 nM; at D(4) dopamine receptor, 75.9 nM.

As to `CCCc1c(C(=O)NCCCCN2CCN(c3ccccc3OC)CC2)nnn1Cc1ccc(OC)cc1`, the Ki is 42.7 nM on D(2) dopamine receptor [1], 12.9 nM at D(3) dopamine receptor [2] and 129 nM at D(4) dopamine receptor.

The compound `Cc1cccc2c(CN3CCN(c4ccc(Cl)cc4)CC3)cnn12` had an inhibitory constant (Ki) on D(3) dopamine receptor [2] of 3720 nM.

Consider `COc1ccccc1N1CCN(CCCCCNC(=O)c2nnn(Cc3ccccc3)c2C)CC1`, for which the values for the Ki at D(2) dopamine receptor [1], at D(3) dopamine receptor [2] and at D(4) dopamine receptor were 9.33 nM, 15.8 nM and 158 nM, respectively.

Consider `N#Cc1ccc2cc(C(=O)NCCCCN3CCN(c4cccc(Cl)c4Cl)CC3)[nH]c2c1`, for which the inhibition constant Ki was 339 nM on D(2) dopamine receptor [1], 0.355 nM at D(3) dopamine receptor [2] and 631 nM on D(4) dopamine receptor.

Turning to `COc1ccccc1N1CCN(CCCCNC(=O)c2cc3cc(Br)ccc3[nH]2)CC1`, the inhibition constant (Ki) is 110 nM on D(2) dopamine receptor [1], 0.245 nM at D(3) dopamine receptor [2] and 15.8 nM at D(4) dopamine receptor.

Regarding `COc1ccc(C(=O)NCCCCN2CCN(c3ccccc3Cl)CC2)cc1OC`, the Ki on D(2) dopamine receptor [1] is 282 nM; at D(3) dopamine receptor [2], 3.09 nM; on D(4) dopamine receptor, 170 nM.

As to `O=C(NCCCCN1CCN(c2cccc(Cl)c2Cl)CC1)c1cc2cc(Br)ccc2[nH]1`, the results for the inhibition constant Ki at D(2) dopamine receptor [1], on D(3) dopamine receptor [2] and at D(4) dopamine receptor were 2290 nM, 0.741 nM and 603 nM, respectively.

As for `CCCc1c(C(=O)NCCCCN2CCN(c3ccccc3OC)CC2)nnn1Cc1ccccc1`, the inhibition constant (Ki) at D(2) dopamine receptor [1] was 57.5 nM; at D(3) dopamine receptor [2], 11 nM; on D(4) dopamine receptor, 302 nM.

As for `COc1ccccc1N1CCN(CCCCNC(=O)c2ccc(-c3cccc([18F])n3)cc2)CC1`, the Ki in test [4] was 16 nM; on D(3) dopamine receptor [2], 0.37 nM; in test [5] it was 450 nM; at D(2) dopamine receptor [6], 16 nM; on D(4) dopamine receptor, 28 nM; on D(2) dopamine receptor [7] it was 27 nM. At D(1A) dopamine receptor, this compound displayed a Ki of 870 nM.

As for `COc1ccc(Cn2nnc(C(=O)NCCCCCN3CCN(c4cccc(Cl)c4Cl)CC3)c2C)cc1`, the Ki at D(2) dopamine receptor [1] is 9.12 nM; on D(3) dopamine receptor [2], 33.9 nM; at D(4) dopamine receptor, 288 nM.

For `COc1ccc(Cn2nnc(C(=O)NCCCCCN3CCN(c4ccccc4OC)CC3)c2C)cc1`, the Ki at D(2) dopamine receptor [1] was 17 nM; on D(3) dopamine receptor [2] it was 87.1 nM; on D(4) dopamine receptor, 269 nM.

Regarding `COc1ccccc1N1CCN(CCCCNC(=O)c2nnn(Cc3ccccc3Br)c2C)CC1`, the Ki at D(2) dopamine receptor [1] was 61.7 nM; at D(3) dopamine receptor [2] it was 32.4 nM; on D(4) dopamine receptor it was 91.2 nM.

For the compound `O=C(NCCCCN1CCN(c2ccccc2Cl)CC1)c1ccc(-c2ccccc2)cc1`, the Ki is 129 nM at D(2) dopamine receptor [1], 0.28 nM on D(3) dopamine receptor [2] and 240 nM at D(4) dopamine receptor.

For the compound `COc1ccccc1N1CCN(CCCCNC(=O)c2cc3cc(C#N)ccc3[nH]2)CC1`, the Ki on D(2) dopamine receptor [1] was 141 nM; at D(3) dopamine receptor [2] it was 0.575 nM; at D(4) dopamine receptor, 24 nM.

Turning to `CCCc1c(C(=O)NCCCCN2CCN(c3cccc(Cl)c3Cl)CC2)nnn1Cc1ccccc1`, the Ki on D(2) dopamine receptor [1] is 14.1 nM; on D(3) dopamine receptor [2], 2.4 nM; on D(4) dopamine receptor, 219 nM.

With `c1ccc(C2CCN(Cc3cnn(-c4ccccc4)c3)CC2)cc1`, the values for the Ki at D(2) dopamine receptor [1], on D(3) dopamine receptor [2] and on D(4) dopamine receptor were 38 nM, 33.1 nM and 0.589 nM, respectively.

For `COc1ccccc1N1CCN(CCCCNC(=O)c2cc3cc(C#N)ccc3s2)CC1`, the Ki on D(3) dopamine receptor [3] was 0.457 nM; on D(2) dopamine receptor [1] it was 67.6 nM; at D(4) dopamine receptor, 44.7 nM.

With `COc1ccccc1N1CCN(CCCCNC(=O)c2cc3cc(Br)ccc3o2)CC1`, the Ki is 0.692 nM at D(3) dopamine receptor [3], 95.5 nM at D(2) dopamine receptor [1] and 17 nM on D(4) dopamine receptor.

Take `C#Cc1ccc2sc(C(=O)NCCCCN3CCN(c4ccccc4OC)CC3)cc2c1`: the Ki is 407 nM on D(2) dopamine receptor [1], 0.389 nM on D(3) dopamine receptor [2] and 30.9 nM on D(4) dopamine receptor.

Regarding `O=C(NCCCCN1CCN(c2ccccc2Cl)CC1)c1ccc2ccccc2c1`, the Ki is 457 nM on D(2) dopamine receptor [1], 1 nM at D(3) dopamine receptor [2] and 200 nM on D(4) dopamine receptor.

At D(3) dopamine receptor [2], `COc1ccccc1N1CCN(CCCCNC(=O)c2cc3cc(C#N)ccc3o2)CC1` showed a Ki of 4.27 nM.

As to `O=C(NCCCCN1CCN(c2cccc(Cl)c2Cl)CC1)c1cc2ccccc2[nH]1`, affinity at D(3) dopamine receptor [2] was put at a Ki of 0.661 nM.

Consider `COc1ccc(Cn2nnc(C(=O)NCCCCN3CCN(c4ccccc4OC)CC3)c2C)cc1`, for which the values for the inhibition constant Ki at D(2) dopamine receptor [1], on D(3) dopamine receptor [2] and on D(4) dopamine receptor were 55 nM, 28.8 nM and 282 nM, respectively.

On to `Cc1c(C(=O)NCCCCN2CCN(c3cccc(Cl)c3Cl)CC2)nnn1Cc1ccccc1`, for which the inhibition constant (Ki) on D(2) dopamine receptor [1] was 38.9 nM; at D(3) dopamine receptor [2], 4.27 nM; on D(4) dopamine receptor, 282 nM.

With `CCCc1c(C(=O)NCCCCCN2CCN(c3ccccc3OC)CC2)nnn1Cc1ccccc1Br`, the Ki at D(2) dopamine receptor [1] is 5.25 nM; at D(3) dopamine receptor [2], 7.41 nM; on D(4) dopamine receptor, 39.8 nM.

In the case of `c1ccc(C2CCN(Cc3cn(-c4ccccc4)nn3)CC2)cc1`, the inhibitory constant (Ki) at D(2) dopamine receptor [1] was 219 nM; at D(3) dopamine receptor [2] it was 93.3 nM; at D(4) dopamine receptor it was 3.24 nM.

For the origin of these results see ChEMBL document CHEMBL1141401, “Structure-selectivity investigations of D2-like receptor ligands by CoMFA and CoMSIA guiding the discovery of D3 selective PET radioligands” (J Med Chem, 2007).
